Target: T1, CXCR3 (Homo sapiens, UniProt P49682)
T1 construct: host or cells: CHO-K1 (cAMP Hunter CHOK1 CXCR3 Gi cell line)
T1 sequence (P49682 1-368): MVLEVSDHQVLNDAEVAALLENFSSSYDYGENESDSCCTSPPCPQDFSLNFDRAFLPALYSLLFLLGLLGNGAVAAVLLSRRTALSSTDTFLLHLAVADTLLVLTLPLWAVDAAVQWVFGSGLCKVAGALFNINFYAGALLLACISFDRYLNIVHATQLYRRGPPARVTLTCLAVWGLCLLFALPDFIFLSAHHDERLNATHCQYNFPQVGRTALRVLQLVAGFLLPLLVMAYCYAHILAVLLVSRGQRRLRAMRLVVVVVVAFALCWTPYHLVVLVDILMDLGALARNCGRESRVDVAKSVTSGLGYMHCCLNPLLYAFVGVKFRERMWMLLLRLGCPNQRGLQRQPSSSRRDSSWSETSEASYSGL
Experiment: CXCR3 cAMP agonist assay (cAMP Hunter CHOK1 CXCR3 Gi cell line, forskolin-stimulated, HitHunter cAMP detection)
Type: cell-based
Conditions: cAMP Hunter CHOK1 CXCR3 Gi cells, 20 μM forskolin, 30 minutes; read-out: Activity (CXCR3 cAMP agonist assay compound EC50)
How it was run: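 CHOK1 cells expressing human CXCR3 with Gi coupling, 50,000/well in suspension in HBSS/10 mM HEPES/0.1% BSA pH 7.4, were co-treated with 20 μM forskolin and compound (12-point, 0-10 μM, 1% DMSO) for 30 min. cAMP was read by enzyme-complementation luminescence; CXCL11 dose response set maximum efficacy.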

EC50 [µM]	SMILES
< 0.05	Cc1cc(NC(=O)[C@H](CCNC(=O)CN)NC(=O)[C@@H]2Cc3ccccc3CN2C(=O)CCC(=O)N2CCCCC2)ccc1Cl [Compound 31-1, (S)—N—((S)-4-(2-aminoacetamido)-1-((4-chloro-3-methylphenyl)amino)-1-oxobutan-2-yl)-2-(4-oxo-4-(piperidin-1-yl)butanoyl)-1,2,3,4-tetrahydroisoquinoline-3-carboxamide]
< 0.05	Cc1c(Cl)ccc(NC(=O)[C@H](CCN)NC(=O)[C@@H]2Cc3ccccc3CN2C(=O)CCC(=O)N2CCCCC2(C)C)c1Cl [Compound 15-52]
< 0.05	Cc1cc(NC(=O)[C@H](CCN)NC(=O)[C@@H]2Cc3ccccc3CN2C(=O)CCC(=O)N2CC[C@H](C)C2)ccc1Cl [Compound 12-123]
< 0.05	CC1(C)COCCN1C(=O)CCC(=O)N1Cc2ccccc2C[C@H]1C(=O)N[C@@H](CCN)C(=O)Nc1ccc(Cl)c(Cl)c1F [Compound 15-11]
< 0.05	O=C(NC1(C(=O)Nc2ccc(Cl)c(Cl)c2F)CCNCC1)[C@@H]1Cc2ccccc2CN1C(=O)CCC(=O)N1CCCC12CCC2 [Compound 12-136]
0.25 to 0.5	NCC[C@H](NC(=O)[C@@H]1Cc2ccccc2CN1C(=O)CCC(=O)N1CCC2(CC1)COC2)C(=O)Nc1ccc(Cl)c(Cl)c1F [Compound 15-12]
< 0.05	Cc1cc(NC(=O)[C@H](CCN)NC(=O)[C@@H]2Cc3ccccc3CN2C(=O)CCC(=O)N2CCC[C@H](C)C2)ccc1Cl [Compound 12-58]
0.25 to 0.5	Cc1cccc(NC(=O)[C@H](CCN2CCC(O)CC2)NC(=O)[C@@H]2Cc3ccccc3CN2C(=O)CCC(=O)c2ccccc2)c1Cl (racemic) [Compound 25-3]
0.05 to 0.25	CCc1c(Cl)ccc(NC(=O)[C@H](CCN)NC(=O)[C@@H]2Cc3ccccc3CN2C(=O)CCC(=O)c2ccccc2)c1Cl [Compound 14-21]
< 0.05	CC1(C)CCCN1C(=O)CCC(=O)N1Cc2ccccc2C[C@H]1C(=O)N[C@@H](CCN)C(=O)Nc1ccc(Cl)c(Cl)c1F [Compound 15-4]
< 0.05	CC[C@H]1CCCCN1C(=O)CCC(=O)N1Cc2ccccc2C[C@H]1C(=O)N[C@@H](CCN)C(=O)Nc1ccc(Cl)c(C)c1 [Compound 12-97]
< 0.05	Cc1cc(NC(=O)[C@H](CCN)NC(=O)[C@@H]2Cc3ccccc3CN2C(=O)CCC(=O)N2CCC(C)(C)CC2)ccc1Cl [Compound 12-28]
0.05 to 0.25	Cc1ccc(NC(=O)C2(NC(=O)[C@@H]3Cc4ccccc4CN3C(=O)CCC(=O)c3ccccc3)CCNCC2)c(F)c1 [Compound 13-2]
< 0.05	Cc1c(Cl)ccc(NC(=O)[C@H](CCN)NC(=O)[C@@H]2Cc3ccccc3CN2C(=O)CCC(=O)N2CCCC(C)(C)C2)c1Cl [Compound 15-50]
0.05 to 0.25	Cc1cc(NC(=O)[C@H](CCN)NC(=O)[C@@H]2Cc3ccccc3CN2C(=O)CCC(=O)NC(C)(C)C)ccc1Cl [Compound 12-83]
< 0.05	Cc1cc(NC(=O)[C@H](CCN)NC(=O)[C@@H]2Cc3ccccc3CN2C(=O)CCC(=O)N2CCCCC2C(C)C)ccc1Cl (stereo partly shown) [Compound 12-121]
< 0.05	CC[C@H]1CCN(C(=O)CCC(=O)N2Cc3ccccc3C[C@H]2C(=O)N[C@@H](CCN)C(=O)Nc2ccc(Cl)c(C)c2)C1 [Compound 12-153]
> 0.5	Cc1cc(NC(=O)[C@H](CCN)NC(=O)[C@@H]2Cc3ccccc3CN2C(=O)CCC(=O)N2CC3(COC3)C2)ccc1Cl [Compound 12-9]
> 0.5	CN(C(=O)CCC(=O)N1Cc2ccccc2C[C@H]1C(=O)N[C@@H](CCN)C(=O)Nc1ccc(Cl)c(Cl)c1F)C1CC1 [Compound 15-41]
0.05 to 0.25	CCN1CCN(C(=O)CCC(=O)N2Cc3ccccc3C[C@H]2C(=O)N[C@@H](CCN)C(=O)Nc2ccc(Cl)c(C)c2)CC1 [Compound 12-99]
0.05 to 0.25	CN(CC(C)(C)C)C(=O)CCC(=O)N1Cc2ccccc2C[C@H]1C(=O)NC1(C(=O)Nc2ccc(Cl)c(Cl)c2F)CCNCC1 [Compound 12-137]
< 0.05	N#Cc1ccccc1NC(=O)[C@H](CCN)NC(=O)[C@@H]1Cc2ccccc2CN1C(=O)CCC(=O)c1ccccc1 [Compound 27-4]
< 0.05	Cc1cc(NC(=O)[C@H](CCN)NC(=O)[C@@H]2Cc3ccccc3CN2C(=O)CCC(=O)Nc2ccccc2)ccc1Cl [Compound 12-81]
< 0.05	CC1CN(C(=O)CCC(=O)N2Cc3ccccc3C[C@H]2C(=O)N[C@@H](CCN)C(=O)Nc2ccc(Cl)c(Cl)c2F)CCN1C (stereo partly shown) [Compound 15-5]
0.05 to 0.25	C[C@@H]1CN(C(=O)CCC(=O)N2Cc3ccccc3C[C@H]2C(=O)N[C@@H](CCN)C(=O)Nc2ccc(Cl)c(Cl)c2F)CCN1C [Compound 15-64]
0.05 to 0.25	COC[C@@H]1CCCN1C(=O)CCC(=O)N1Cc2ccccc2C[C@H]1C(=O)N[C@@H](CCN)C(=O)Nc1ccc(Cl)c(C)c1 [Compound 12-134]

Further lines, the compound ahead of its results:

SMILES	EC50 [µM]
CCc1cc(Cl)c(Cl)cc1NC(=O)[C@H](CCN)NC(=O)[C@@H]1Cc2ccccc2CN1C(=O)CCC(=O)c1ccccc1 [Compound 2-30]	0.05 to 0.25
NCC[C@H](NC(=O)[C@@H]1Cc2ccccc2CN1C(=O)CCC(=O)c1ccccc1)C(=O)Nc1ccc(Cl)cc1F [Compound 2-9]	0.05 to 0.25
NCC[C@H](NC(=O)[C@@H]1Cc2ccccc2CN1C(=O)CCC(=O)c1ccccc1)C(=O)Nc1cccc(C(F)(F)F)c1 [Compound 2-6]	0.05 to 0.25
NCC[C@H](NC(=O)[C@@H]1Cc2ccccc2CN1C(=O)CCC(=O)c1ccccc1)C(=O)NC1CCc2ccccc2C1 (stereo partly shown) [Compound 2-81]	0.05 to 0.25
Cc1cc(NC(=O)[C@H](CCCCN)NC(=O)[C@@H]2Cc3ccccc3CN2C(=O)CCC(=O)c2ccccc2)cnc1C [Compound 1-34]	< 0.05
Cc1cc(NC(=O)[C@H](Cc2cncn2C)NC(=O)[C@@H]2Cc3ccccc3CN2C(=O)CCC(=O)c2ccccc2)ccc1Cl [Compound 5-2]	0.05 to 0.25
Cc1ccc(F)c(NC(=O)[C@H](CCN)NC(=O)[C@@H]2Cc3ccccc3CN2C(=O)CCC(=O)c2ccccc2)c1 [Compound 2-33]	< 0.05
CC1(C)CCCN(C(=O)CCC(=O)N2Cc3ccccc3C[C@H]2C(=O)N[C@@H](CCN)C(=O)Nc2ccc3c(c2)CCC3)C1 [Compound 10-7]	< 0.05
Cc1cc(NC(=O)[C@H](CCCCN)NC(=O)[C@@H]2Cc3ccccc3CN2C(=O)CCC(=O)c2ccc(F)c(F)c2)ccc1Cl [Compound 7-4]	0.25 to 0.5
Cc1cc(NC(=O)[C@H](Cc2cnc(N)nc2)NC(=O)[C@@H]2Cc3ccccc3CN2C(=O)CCC(=O)c2ccccc2)ccc1Cl [Compound 3-14]	0.25 to 0.5
Cc1cc(NC(=O)[C@H](CCN2CCCCC2)NC(=O)[C@@H]2Cc3ccccc3CN2C(=O)CCC(=O)c2ccccc2)ccc1Cl [Compound 3-9]	< 0.05
NCC[C@H](NC(=O)[C@@H]1Cc2ccccc2CN1C(=O)CCC(=O)c1ccccc1)C(=O)Nc1cc2c(cc1O)CCC2 [Compound 2-74]	0.05 to 0.25
NCCCC[C@H](NC(=O)[C@@H]1Cc2ccccc2CN1C(=O)CCC(=O)c1ccccc1)C(=O)Nc1cccc(Cl)c1 [Compound 1-9]	0.05 to 0.25
COc1c(NC(=O)[C@H](CCN)NC(=O)[C@@H]2Cc3ccccc3CN2C(=O)CCC(=O)c2ccccc2)ccc(C)c1C [Compound 2-61]	> 0.5

From US11040954B1, “CXCR3 receptor agonists” (RECEPTOS LLC, priority 2016, dated 2021)
